Assay results taken from US11020395B2, “Cycloalkyl substituted triazole compounds as agonists of the APJ receptor” (AMGEN INC., priority 2016, dated 2021).

Biological target: human APJ receptor (Homo sapiens (Human), UniProt P35414)
Assay: [35S]GTPγS binding assay on membranes from CHO cells stably expressing human APJ receptor
Assay type: biochemical
Conditions: [35S]GTPγS SPA, read-out: Activity hAPJ SPA EC50 IP
Summary of the method: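 Membranes from CHO cells stably expressing FLAG-tagged human APJ were incubated with [35S]GTPγS in buffer with optimized GDP, MgCl2 and NaCl, 90 min at RT. EC50 values derived by non-linear regression, averaged over several independent experiments.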

human APJ receptor, sequence (P35414 whole entry): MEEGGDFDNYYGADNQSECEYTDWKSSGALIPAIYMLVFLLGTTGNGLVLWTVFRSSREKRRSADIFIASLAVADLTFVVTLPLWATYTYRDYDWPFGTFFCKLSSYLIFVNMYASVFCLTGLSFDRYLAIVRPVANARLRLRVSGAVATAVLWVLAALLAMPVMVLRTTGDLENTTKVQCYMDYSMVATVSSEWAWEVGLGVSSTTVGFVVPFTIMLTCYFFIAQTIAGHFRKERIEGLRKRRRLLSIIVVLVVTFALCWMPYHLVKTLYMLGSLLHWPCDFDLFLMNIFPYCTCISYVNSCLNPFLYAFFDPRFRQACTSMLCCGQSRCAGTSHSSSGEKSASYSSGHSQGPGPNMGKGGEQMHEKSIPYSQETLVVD

In order of falling EC50:
1. CO[C@H](c1ncc(Cl)cn1)[C@H](C)S(=O)(=O)Nc1nnc([C@H]2C[C@H](CO)C2)n1C1CC1 (single isomer, unassigned) [Example 135.0, (1R,2S)-1-(5-chloro-2-pyrimidinyl)-N-(4-cyclopropyl-5-(trans-3-(hydroxymethyl)cyclobutyl)-4H-1,2,4-triazol-3-yl)-1-methoxy-2-propanesulfonamide or (1R,2S)-1-(5-chloro-2-pyrimidinyl)-N-(4-cyclopropyl-5-(cis-3-(hydroxymethyl)cyclobutyl)-4H-1,2,4-triazol-3-yl)-1-methoxy-2-propanesulfonamide]  1810 nM
2. CO[C@H](c1ncc(Cl)cn1)[C@H](C)S(=O)(=O)Nc1nnc([C@H]2C[C@H](CO)C2)n1C1CC1 (single isomer, unassigned) [Example 134.0, (1R,2S)-1-(5-chloro-2-pyrimidinyl)-N-(4-cyclopropyl-5-(trans-3-(hydroxymethyl)cyclobutyl)-4H-1,2,4-triazol-3-yl)-1-methoxy-2-propanesulfonamide or (1R,2S)-1-(5-chloro-2-pyrimidinyl)-N-(4-cyclopropyl-5-(cis-3-(hydroxymethyl)cyclobutyl)-4H-1,2,4-triazol-3-yl)-1-methoxy-2-propanesulfonamide]  1330 nM
3. CC(C)O[C@@H](c1ncc(Cl)cn1)[C@H](C)S(=O)(=O)Nc1nnc(C2CCC2)n1C1CCOCC1 [Example 211.0, (1S,2S)-1-(5-chloro-2-pyrimidinyl)-N-(5-cyclobutyl-4-(tetrahydro-2H-pyran-4-yl)-4H-1,2,4-triazol-3-yl)-1-(2-propanyloxy)-2-propanesulfonamide]  420 nM
4. COc1cccc(OC)c1-n1c(NS(=O)(=O)[C@@H](C)[C@@H](OC(C)C)c2ncc(C)cn2)nnc1[C@@H]1CCC(=O)C1 (single isomer, unassigned) [Example 230.0, (1S,2S)-N-(4-(2,6-dimethoxyphenyl)-5-((R)-3-oxocyclopentyl)-4H-1,2,4-triazol-3-yl)-1-isopropoxy-1-(5-methylpyrimidin-2-yl)propane-2-sulfonamide or (1S,2S)-N-(4-(2,6-dimethoxyphenyl)-5-((S)-3-oxocyclopentyl)-4H-1,2,4-triazol-3-yl)-1-isopropoxy-1-(5-methylpyrimidin-2-yl)propane-2-sulfonamide]  190 nM
5. COc1ncnc(OC)c1-n1c(NS(=O)(=O)[C@@H](C)[C@H](OC)c2ncc(Cl)cn2)nnc1[C@H]1CC1(F)F (single isomer, unassigned) [Example 101.0, (1R,2S)-1-(5-chloropyrimidin-2-yl)-N-(5-((R)-2,2-difluorocyclopropyl)-4-(4,6-dimethoxypyrimidin-5-yl)-4H-1,2,4-triazol-3-yl)-1-methoxypropane-2-sulfonamide or (1R,2S)-1-(5-chloropyrimidin-2-yl)-N-(5-((S)-2,2-difluorocyclopropyl)-4-(4,6-dimethoxypyrimidin-5-yl)-4H-1,2,4-triazol-3-yl)-1-methoxypropane-2-sulfonamide]  60 nM
6. COc1cccc(OC)c1-n1c(NS(=O)(=O)[C@@H](C)[C@H](OC)c2ncc(Cl)cn2)nnc1[C@H]1C[C@@H](CO)C1 (single isomer, unassigned) [Example 124.0, (1R,2S)-1-(5-chloro-2-pyrimidinyl)-N-(4-(2,6-dimethoxyphenyl)-5-(cis-3-(hydroxymethyl)cyclobutyl)-4H-1,2,4-triazol-3-yl)-1-methoxy-2-propanesulfonamide or (1R,2S)-1-(5-chloro-2-pyrimidinyl)-N-(4-(2,6-dimethoxyphenyl)-5-(trans-3-(hydroxymethyl)cyclobutyl)-4H-1,2,4-triazol-3-yl)-1-methoxy-2-propanesulfonamide]  49 nM
7. COCC(COC)n1c(NS(=O)(=O)[C@@H](C)[C@H](OC)c2ncc(Cl)cn2)nnc1C1CCC1 [Example 95.0, (1R,2S)-1-(5-chloropyrimidin-2-yl)-N-(5-cyclobutyl-4-(1,3-dimethoxypropan-2-yl)-4H-1,2,4-triazol-3-yl)-1-methoxypropane-2-sulfonamide]  43 nM
8. COc1ncnc(OC)c1-n1c(NS(=O)(=O)[C@@H](C)[C@H](C)c2cnc(C)cn2)nnc1C1CCC1 [Example 88.0, (2S,3R)-N-(5-cyclobutyl-4-(4,6-dimethoxy-5-pyrimidinyl)-4H-1,2,4-triazol-3-yl)-3-(5-methyl-2-pyrazinyl)-2-butanesulfonamide]  42 nM
9. COc1ncnc(OC)c1-n1c(NS(=O)(=O)[C@@H](C)[C@@H](OC(C)C)c2cnc(C)cn2)nnc1C1CCC1 [Example 86.0, (1S,2S)-N-(5-cyclobutyl-4-(4,6-dimethoxy-5-pyrimidinyl)-4H-1,2,4-triazol-3-yl)-1-(5-methyl-2-pyrazinyl)-1-(2-propanyloxy)-2-propanesulfonamide]  36 nM
10. COc1ncnc(OC)c1-n1c(NS(=O)(=O)[C@@H](C)[C@H](OC)c2ncc(Cl)cn2)nnc1[C@H]1CC[C@@H]1F (single isomer, unassigned) [Example 181.0, (1R,2S)-1-(5-chloropyrimidin-2-yl)-N-(4-(4,6-dimethoxypyrimidin-5-yl)-5-((1R,2S)-2-fluorocyclobutyl)-4H-1,2,4-triazol-3-yl)-1-methoxypropane-2-sulfonamide or (1R,2S)-1-(5-chloropyrimidin-2-yl)-N-(4-(4,6-dimethoxypyrimidin-5-yl)-5-((1S,2R)-2-fluorocyclobutyl)-4H-1,2,4-triazol-3-yl)-1-methoxypropane-2-sulfonamide]  32 nM
11. (1R,2S)-1-(5-chloropyrimidin-2-yl)-N-(4-(2,6-dimethoxyphenyl)-5-((S)-spiro[2.2]pentan-1-yl)-4H-1,2,4-triazol-3-yl)-1-methoxypropane-2-sulfonamide or (1R,2S)-1-(5-chloropyrimidin-2-yl)-N-(4-(2,6-dimethoxyphenyl)-5-((R)-spiro[2.2]pentan-1-yl)-4H-1,2,4-triazol-3-yl)-1-methoxypropane-2-sulfonamide [Example 222.0]  24 nM
12. COc1ncnc(OC)c1-n1c(NS(=O)(=O)[C@@H](C)[C@H](OC)c2ncc(Cl)cn2)nnc1[C@H]1C[C@@H](C(F)(F)F)C1 (single isomer, unassigned) [Example 177.0, (1R,2S)-1-(5-chloropyrimidin-2-yl)-N-(4-(4,6-dimethoxypyrimidin-5-yl)-5-((1s,3R)-3-(trifluoromethyl)cyclobutyl)-4H-1,2,4-triazol-3-yl)-1-methoxypropane-2-sulfonamide or (1R,2S)-1-(5-chloropyrimidin-2-yl)-N-(4-(4,6-dimethoxypyrimidin-5-yl)-5-((1r,3S)-3-(trifluoromethyl)cyclobutyl)-4H-1,2,4-triazol-3-yl)-1-methoxypropane-2-sulfonamide]  23 nM
13. COc1cccc(OC)c1-n1c(NS(=O)(=O)[C@@H](C)[C@H](OC)c2ncc(Cl)cn2)nnc1[C@H]1CC[C@H](OC)C1 (single isomer, unassigned) [Example 214.0]  20 nM
14. COc1cccc(OC)c1-n1c(NS(=O)(=O)[C@@H](C)[C@H](OCC(F)F)c2ncc(C)cn2)nnc1C1CCC1 [Example 209.0]  18 nM
15. COc1ncnc(OC)c1-n1c(NS(=O)(=O)[C@@H](C)[C@H](C)c2ncc(F)cn2)nnc1C1CCC1 [Example 84.0, (2S,3R)-N-(5-cyclobutyl-4-(4,6-dimethoxy-5-pyrimidinyl)-4H-1,2,4-triazol-3-yl)-3-(5-fluoro-2-pyrimidinyl)-2-butanesulfonamide]  10.8 nM
16. COc1cccc(OC)c1-n1c(NS(=O)(=O)[C@@H](C)[C@H](OC)c2ncc(C)cn2)nnc1[C@H]1C[C@H](Cl)C1 (single isomer, unassigned) [Example 191.0, (1R,2S)-N-(5-((1r,3S)-3-chlorocyclobutyl)-4-(2,6-dimethoxyphenyl)-4H-1,2,4-triazol-3-yl)-1-methoxy-1-(5-methylpyrimidin-2-yl)propane-2-sulfonamide or (1R,2S)-N-(5-((1s,3R)-3-chlorocyclobutyl)-4-(2,6-dimethoxyphenyl)-4H-1,2,4-triazol-3-yl)-1-methoxy-1-(5-methylpyrimidin-2-yl)propane-2-sulfonamide]  7.5 nM
17. COc1ncnc(OC)c1-n1c(NS(=O)(=O)[C@@H](C)[C@H](OC)c2ncc(Cl)cn2)nnc1C1CCCCC1 [Example 6.0, (1R,2S)-1-(5-chloro-2-pyrimidinyl)-N-(5-cyclohexyl-4-(4,6-dimethoxy-5-pyrimidinyl)-4H-1,2,4-triazol-3-yl)-1-methoxy-2-propanesulfonamide]  7.5 nM
18. COc1cccc(OC)c1-n1c(NS(=O)(=O)[C@@H](C)[C@H](OC)c2ncc(Cl)cn2)nnc1C1CC(F)(F)C1 [Example 147.0]  6.4 nM
19. COc1ncnc(OC)c1-n1c(NS(=O)(=O)[C@@H](C)[C@H](C)c2ncc(C)cn2)nnc1C1CC2(CC2)C1 [Example 202.0]  4.2 nM
20. COc1ncnc(OC)c1-n1c(NS(=O)(=O)[C@@H](C)[C@H](OC)c2ncc(Cl)cn2)nnc1C1CCCC1 [Example 19.0, (1R,2S)-1-(5-chloropyrimidin-2-yl)-N-(5-cyclopentyl-4-(4,6-dimethoxypyrimidin-5-yl)-4H-1,2,4-triazol-3-yl)-1-methoxypropane-2-sulfonamide]  1.1 nM
21. COc1cccc(OC)c1-n1c(NS(=O)(=O)[C@@H](C)[C@H](OC)c2ncc(Cl)cn2)nnc1C1CCC1 [Example 93.0, (1R,2S)-1-(5-chloropyrimidin-2-yl)-N-(5-cyclobutyl-4-(2,6-dimethoxyphenyl)-4H-1,2,4-triazol-3-yl)-1-methoxypropane-2-sulfonamide]  0.91 nM
22. COc1ncnc(OC)c1-n1c(NS(=O)(=O)[C@@H](C)[C@H](OC)c2ncc(Cl)cn2)nnc1[C@H]1C[C@@H](Cl)C1 (single isomer, unassigned) [Example 164.0, (1R,2S)-1-(5-chloropyrimidin-2-yl)-N-(4-(4,6-dimethoxypyrimidin-5-yl)-5-((1s,3R)-3-chlorocyclobutyl)-4H-1,2,4-triazol-3-yl)-1-methoxypropane-2-sulfonamide or (1R,2S)-1-(5-chloropyrimidin-2-yl)-N-(4-(4,6-dimethoxypyrimidin-5-yl)-5-((1r,3S)-3-chlorocyclobutyl)-4H-1,2,4-triazol-3-yl)-1-methoxypropane-2-sulfonamide]  0.54 nM
